According to the OligoGym collection:
Values joined by “and” are separate entries in the source; they are usually repeats but may differ in a detail not shown here. Equal entries are not always repeated. After the bases stand the sugars from the 5' end (letter, count) and the backbone: PS all phosphorothioate, else s phosphorothioate and o phosphodiester by linkage. Methylation of C is not given here. e = 2'-O-(2-methoxyethyl) (MOE); k = constrained ethyl (cEt); d = 2'-deoxy (DNA)

Target: SOD1
Settings: ASO

Sequence: CAGTGTTTAATGTTTATC (sugars e5 d8 e5, linkages s1 o3 s9 o2 s2)
- target mRNA inhibition (A431, 0.12 µM): 0%
- target mRNA inhibition (A431, 0.6 µM): 8%
- target mRNA inhibition (A431, 3 µM): 39%
- target mRNA inhibition (A431, 15 µM): 52%
- target mRNA inhibition (HepG2, 0.222 µM): 21%
- target mRNA inhibition (HepG2, 0.667 µM): 47%
- target mRNA inhibition (HepG2, 2 µM): 64%
- target mRNA inhibition (HepG2, 6 µM): 84%

Sequence: CAGTTTCTCACTACAGG (sugars e2 k2 d9 k2 e2, PS)
- target mRNA inhibition (HepG2, 5 µM): 38%

Sequence: CATACAGGGTTTTTATT (sugars e3 k2 d7 k2 e3, PS)
- target mRNA inhibition (HepG2, 3 µM): 0%

Sequence: CATCCTTTGGCCCACCG (sugars e3 k2 d7 k2 e3, PS)
- target mRNA inhibition (HepG2, 3 µM): 38%

Sequence: CATGCCTCTCTTCATCC (sugars e3 k2 d7 k2 e3, PS)
- target mRNA inhibition (HepG2, 3 µM): 14%

Sequence: CATTGCCCAAGTCTCCAACA (sugars e5 d10 e5, PS)
- target mRNA inhibition (HepG2, 5 µM): 39% and 25%

Sequence: CATTTCTACAGCTAGC (sugars ekddddddddekekee, linkages s1 o1 s8 o3 s2)
- target mRNA inhibition (A431, 0.12 µM): 3%
- target mRNA inhibition (A431, 0.6 µM): 3%
- target mRNA inhibition (A431, 3 µM): 2%
- target mRNA inhibition (A431, 15 µM): 11%

Sequence: CCAAGGGAATGTTTATT (sugars e2 k2 d8 k2 e3, PS)
- target mRNA inhibition (HepG2, 4 µM): 57%

Sequence: CCAAGGGAATGTTTATT (sugars e3 k2 d7 k2 e3, PS)
- target mRNA inhibition (HepG2, 3 µM): 36%

Sequence: CCAAGTGATCATAAATC (sugars e2 k2 d8 k2 e3, PS)
- target mRNA inhibition (HepG2, 5 µM): 40%

Sequence: CCAATTACACCACAAGC (sugars e3 k2 d7 k2 e3, PS)
- target mRNA inhibition (HepG2, 3 µM): 29%

Sequence: CCACACCATCTTTGTCAGCA (sugars e5 d10 e5, PS)
- target mRNA inhibition (HepG2, 5 µM): 39% and 20%

Sequence: CCACACCTTCACTGGTCCAT (sugars e5 d10 e5, PS)
- target mRNA inhibition (HepG2, 2 µM): 50%

Sequence: CCACTCTGGCCCCAAAC (sugars e3 k2 d7 k2 e3, PS)
- target mRNA inhibition (HepG2, 3 µM): 17%

Sequence: CCAGACCTCCGCGCCTCGCC (sugars e5 d10 e5, PS)
- target mRNA inhibition (HepG2, 4 µM): 46%

Sequence: CCATGCAGGCCTTCAGT (sugars e3 k2 d7 k2 e3, PS)
- target mRNA inhibition (HepG2, 3 µM): 21%

Sequence: CCCAATTACACCACAAG (sugars e2 k2 d8 k2 e3, PS)
- target mRNA inhibition (HepG2, 4 µM): 63%

Sequence: CCCATCTGTGATTTAAGTCT (sugars e5 d10 e5, PS)
- target mRNA inhibition (HepG2, 5 µM): 41%

Sequence: CCCCGTCTCCGCGACTACTT (sugars e5 d10 e5, PS)
- target mRNA inhibition (HepG2, 4 µM): 16%

Sequence: CCCTTCAGCACGCACAC (sugars e2 k2 d8 k2 e3, PS)
- target mRNA inhibition (HepG2, 0.1875 µM): 25%
- target mRNA inhibition (HepG2, 0.75 µM): 22%
- target mRNA inhibition (HepG2, 2 µM): 50%
- target mRNA inhibition (HepG2, 3 µM): 72%
- target mRNA inhibition (HepG2, 4 µM): 74%
- target mRNA inhibition (HepG2, 12 µM): 79%

Sequence: CCGCGCCTCGCCCACTCTGG (sugars e5 d10 e5, PS)
- target mRNA inhibition (HepG2, 4 µM): 27%

Sequence: CCGTCGCCCTTCAGCAC (sugars e2 k2 d9 k2 e2, PS)
- target mRNA inhibition (HepG2, 0.1875 µM): 24%
- target mRNA inhibition (HepG2, 0.75 µM): 42%
- target mRNA inhibition (HepG2, 3 µM): 80%
- target mRNA inhibition (HepG2, 4 µM): 75%
- target mRNA inhibition (HepG2, 12 µM): 94%

Sequence: CCGTCGCCCTTCAGCAC (sugars e3 k2 d7 k2 e3, PS)
- target mRNA inhibition (HepG2, 3 µM): 27%

Sequence: CCGTCGCCCTTCAGCACGCA (sugars e5 d8 e7, linkages s1 o3 s10 o3 s2)
- target mRNA inhibition (A431, 0.062 µM): 8%
- target mRNA inhibition (A431, 0.185 µM): 4%
- target mRNA inhibition (A431, 0.556 µM): 5%
- target mRNA inhibition (A431, 1.667 µM): 4%
- target mRNA inhibition (A431, 5 µM): 9%
- target mRNA inhibition (A431, 15 µM): 3%
- target mRNA inhibition (SH-SY5Y, 0.062 µM): 11%
- target mRNA inhibition (SH-SY5Y, 0.185 µM): 15%
- target mRNA inhibition (SH-SY5Y, 0.556 µM): 9%
- target mRNA inhibition (SH-SY5Y, 1.667 µM): 30%
- target mRNA inhibition (SH-SY5Y, 5 µM): 59%
- target mRNA inhibition (SH-SY5Y, 15 µM): 76%

Sequence: CCTCAGACTACATCCAA (sugars e2 k2 d9 k2 e2, PS)
- target mRNA inhibition (HepG2, 0.1875 µM): 11%
- target mRNA inhibition (HepG2, 0.75 µM): 67%
- target mRNA inhibition (HepG2, 3 µM): 89%
- target mRNA inhibition (HepG2, 4 µM): 87%
- target mRNA inhibition (HepG2, 12 µM): 94%

Sequence: CCTCATAATAAGTGCCA (sugars e2 k2 d9 k2 e2, PS)
- target mRNA inhibition (HepG2, 5 µM): 31%

Sequence: CCTGCACTGGTACAGCC (sugars e3 k2 d7 k2 e3, PS)
- target mRNA inhibition (HepG2, 3 µM): 17%

Sequence: CCTTCTGCTCGAAATTG (sugars e3 k2 d7 k2 e3, PS)
- target mRNA inhibition (HepG2, 3 µM): 16%

Sequence: CCTTTGGCCCACCGTGT (sugars e3 k2 d7 k2 e3, PS)
- target mRNA inhibition (HepG2, 3 µM): 46%

Sequence: CGATCCCAATTACACCA (sugars e2 k2 d9 k2 e2, PS)
- target mRNA inhibition (HepG2, 4 µM): 59%

Sequence: CGCCCTTCAGCACGCAC (sugars e2 k2 d8 k2 e3, PS)
- target mRNA inhibition (HepG2, 4 µM): 67%

Sequence: CGCCCTTCAGCACGCAC (sugars e2 k2 d9 k2 e2, PS)
- target mRNA inhibition (HepG2, 0.1875 µM): 12%
- target mRNA inhibition (HepG2, 0.75 µM): 47%
- target mRNA inhibition (HepG2, 3 µM): 79%
- target mRNA inhibition (HepG2, 4 µM): 73%
- target mRNA inhibition (HepG2, 12 µM): 94%

Sequence: CGCTGCAGGAGACTACG (sugars e3 k2 d7 k2 e3, PS)
- target mRNA inhibition (HepG2, 3 µM): 0%
